Laboratory results taken from patent US20240252488A1 (KOREA RESEARCH INSTITUTE OF CHEMICAL TECHNOLOGY, priority 2020, published 2024).
pKd: −log10 of the molar value.

Legend:
MLKL [1] = target: T1, MLKL (Homo sapiens, UniProt Q8NB16); experiment: MLKL degradation assay in HepG2 cell line (western blot); type: cell-based; parameters: endogenous in cells; host or cells: HepG2 or HaCaT; settings: cell line not given; for Degradation assay (Degradation %) 1 μM: compound 1 μM; for Degradation assay (Degradation %) 10 μM: compound 10 μM
T1 sequence (Q8NB16 1-471): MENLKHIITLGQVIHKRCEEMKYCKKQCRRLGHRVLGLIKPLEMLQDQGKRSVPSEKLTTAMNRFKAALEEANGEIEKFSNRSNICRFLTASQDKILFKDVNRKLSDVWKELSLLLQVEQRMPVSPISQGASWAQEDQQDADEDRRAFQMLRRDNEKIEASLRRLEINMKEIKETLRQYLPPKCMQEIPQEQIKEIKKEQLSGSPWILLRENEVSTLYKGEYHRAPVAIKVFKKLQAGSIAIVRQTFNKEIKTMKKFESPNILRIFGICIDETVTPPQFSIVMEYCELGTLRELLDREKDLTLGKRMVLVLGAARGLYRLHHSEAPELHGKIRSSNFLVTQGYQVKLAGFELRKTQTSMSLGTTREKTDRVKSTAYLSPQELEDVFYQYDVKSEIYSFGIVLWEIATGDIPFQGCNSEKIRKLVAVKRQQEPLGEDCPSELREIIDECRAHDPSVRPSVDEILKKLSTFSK
In short: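 HepG2, cpd final 1 or 10 μM, 20-24 h, 37 °C/5% CO2; RIPA lysis, BCA-normalized, 10-15 μg/lane SDS-PAGE, western blot, ECL read-out.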

MLKL [2] = target: T1, MLKL; experiment: Measurement of binding affinity with MLKL receptor (competitive binding assay, Kd); parameters: made in house; host or cells: HEK 293 cell line (T7 phage in E. coli BL21-derived host is also described)
In short: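 Competitive displacement of MLKL, expressed in HEK 293 cells and DNA-tagged for qPCR, from immobilized ligand on biotin-blocked beads. Compounds were added from 111× DMSO stocks (final DMSO 0.9%). Kinase left in the eluates was quantified by qPCR to give Kd.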

FADD−/− Jurkat cells = experiment: Necroptosis inhibition assay, TNF-α-induced necroptosis (CellTiter-Glo 2.0); type: cell-based, human; settings: TNF-α 15 ng/mL; for Necroptosis inhibition assay (Rescue %) 1 μM: compound 1 μM; for Necroptosis inhibition assay (Rescue %) 10 μM: compound 10 μM
In short: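 Cmpd 0.1/1/10 μM final, 30 min RT preincubation; TNF-α 15 ng/mL final; 20–24 h, 37° C, 5% CO2. Readout: ATP luminescence (reagent 1:3 in PBS), 0.5 s/well. Cytotoxicity and % necroptosis inhibition calculated from signal.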

| SMILES | Degradation assay (Degradation %) 1 μM (MLKL [1]) | Degradation assay (Degradation %) 10 μM (MLKL [1]) | pKd (MLKL [2]) | Necroptosis inhibition assay (Rescue %) 1 μM (FADD−/− Jurkat cells) | Necroptosis inhibition assay (Rescue %) 10 μM (FADD−/− Jurkat cells) | Necroptosis inhibition assay (Rescue %) 1.1 μM (FADD−/− Jurkat cells; compound 1.1 µM) | Necroptosis inhibition assay (Rescue %) 1 μM (FADD−/− Jurkat cells; FADD−/− Jurkat cells) | Necroptosis inhibition assay (Rescue %) 10 μM (FADD−/− Jurkat cells; FADD−/− Jurkat cells) |
| --- | --- | --- | --- | --- | --- | --- | --- | --- |
| Nc1ncc(-c2cnn([C@H]3CCN(CC4CCN(C(=O)CNc5ccc6c(c5)C(=O)N(C5CCC(=O)NC5=O)C6=O)CC4)C3)c2)nc1C(=O)OC(C(=O)Nc1ccc(F)cc1)c1ccccc1 (stereo partly drawn) [TDH-282, 2-((4-fluorophenyl)amino)-2-oxo-1-phenylethyl 3-amino-6-(1-((3S)-1-((1-((2-(2,6-dioxopiperidin-3-yl)-1,3-dioxoisoindolin-5-yl)glycyl)piperidin-4-yl)methyl)pyrrolidin-3-yl)-1H-pyrazol-4-yl)pyrazine-2-carboxylate] | 60.51% | 58.02% | 8.25 | 77.92% | 67.84% |  |  |  |
| Nc1ncc(-c2cnn(C3CN(CC4CCN(C(=O)CNc5ccc6c(c5)C(=O)N(C5CCC(=O)NC5=O)C6=O)CC4)C3)c2)nc1C(=O)OC(C(=O)Nc1ccc(F)cc1)c1ccccc1 (stereo not drawn) [TDH-297, 2-((4-fluorophenyl)amino)-2-oxo-1-phenylethyl 3-amino-6-(1-(1-((1-((2-(2,6-dioxopiperidin-3-yl)-1,3-dioxoisoindolin-5-yl)glycyl)piperidin-4-yl)methyl)azetidin-3-yl)-1H-pyrazol-4-yl)pyrazine-2-carboxylate] | 76.86% | 70.16% | 7.89 | 74.28% | 63.92% |  |  |  |
| Nc1ncc(-c2cnn(C3CCN(CCOCCOCCOCCNc4cccc5c4C(=O)N(C4CCC(=O)NC4=O)C5=O)CC3)c2)nc1C(=O)O[C@@H](C(=O)Nc1ccc(F)cc1)c1ccccc1 (stereo partly drawn) [TDH-153, (R)-2-((4-fluorophenyl)amino)-2-oxo-1-phenylethyl 3-amino-6-(1-(1-(2-(2-(2-(2-((2-(2,6-dioxopiperidin-3-yl)-1,3-dioxoisoindolin-4-yl)amino)ethoxy)ethoxy)ethoxy)ethyl)piperidin-4-yl)-1H-pyrazol-4-yl)pyrazine-2-carboxylate] | 37.66% | 24.63% | 8.04 | 37.21% | 16.52% |  |  |  |
| Nc1ncc(-c2cnn([C@@H]3CCN(CCOCCOCCNC(=O)COc4cccc5c4C(=O)N(C4CCC(=O)NC4=O)C5=O)C3)c2)nc1C(=O)OC(C(=O)Nc1ccc(F)cc1)c1ccccc1 (stereo partly drawn) [TDH-269, 2-((4-fluorophenyl)amino)-2-oxo-1-phenylethyl 3-amino-6-(1-((3R)-1-(2-(2-(2-(2-((2-(2,6-dioxopiperidin-3-yl)-1,3-dioxoisoindolin-4-yl)oxy)acetamido)ethoxy)ethoxy)ethyl)pyrrolidin-3-yl)-1H-pyrazol-4-yl)pyrazine-2-carboxylate] |  | 12.14% | 8.27 | 35.71% | 81.5% |  |  |  |
| Nc1ncc(-c2cnn(C3CCN(CCOC4CCN(C(=O)C5CCN(c6cccc7c6C(=O)N(C6CCC(=O)NC6=O)C7=O)CC5)CC4)CC3)c2)nc1C(=O)OC(C(=O)Nc1ccc(F)cc1)c1ccccc1 (stereo not drawn) [TDH-247, 2-((4-fluorophenyl)amino)-2-oxo-1-phenylethyl 3-amino-6-(1-(1-(2-((1-(1-(2-(2,6-dioxopiperidin-3-yl)-1,3-dioxoisoindolin-4-yl)piperidine-4-carbonyl)piperidin-4-yl)oxy)ethyl)piperidin-4-yl)-1H-pyrazol-4-yl)pyrazine-2-carboxylate] | 64.32% | 45.04% | 8.34 | 40.99% | 33.69% |  |  |  |
| Nc1ncc(-c2cnn(C3CCN(CCCC4CCN(c5ccc6c(c5)C(=O)N(C5CCC(=O)NC5=O)C6=O)CC4)CC3)c2)nc1C(=O)O[C@@H](C(=O)Nc1ccc(F)cc1)c1ccccc1 (stereo partly drawn) [TDH-481, (R)-2-((4-fluorophenyl)amino)-2-oxo-1-phenylethyl 3-amino-6-(1-(1-(3-(1-(2-(2,6-dioxopiperidin-3-yl)-1,3-dioxoisoindolin-5-yl)piperidin-4-yl)propyl)piperidin-4-yl)-1H-pyrazol-4-yl)pyrazine-2-carboxylate] | 74.5% | 63.36% | 8.06 |  |  |  | 17.64% | 9.86% |

Stronger by pKd (MLKL [2]), values ahead:

| Degradation assay (Degradation %) 1 μM (MLKL [1]) | Degradation assay (Degradation %) 10 μM (MLKL [1]) | pKd (MLKL [2]) | SMILES | Necroptosis inhibition assay (Rescue %) 1 μM (FADD−/− Jurkat cells) | Necroptosis inhibition assay (Rescue %) 10 μM (FADD−/− Jurkat cells) | Necroptosis inhibition assay (Rescue %) 1.1 μM (FADD−/− Jurkat cells; compound 1.1 µM) | Necroptosis inhibition assay (Rescue %) 1 μM (FADD−/− Jurkat cells; FADD−/− Jurkat cells) | Necroptosis inhibition assay (Rescue %) 10 μM (FADD−/− Jurkat cells; FADD−/− Jurkat cells) |
| --- | --- | --- | --- | --- | --- | --- | --- | --- |
| 76.83% | 69.84% | 8.54 | Nc1ncc(-c2cnn(C3CCN(C(=O)c4cn(C5CCN(C(=O)C6CCN(c7ccc8c(c7)C(=O)N(C7CCC(=O)NC7=O)C8=O)CC6)CC5)cn4)CC3)c2)nc1C(=O)O[C@@H](C(=O)Nc1ccc(F)cc1)c1ccccc1 (stereo partly drawn) [TDH-363, (R)-2-((4-fluorophenyl)amino)-2-oxo-1-phenylethyl 3-amino-6-(1-(1-(1-(1-(1-(2-(2,6-dioxopiperidin-3-yl)-1,3-dioxoisoindolin-5-yl)piperidine-4-carbonyl)piperidin-4-yl)-1H-imidazole-4-carbonyl)piperidin-4-yl)-1H-pyrazol-4-yl)pyrazine-2-carboxylate] | 32.65% | 27.11% |  |  |  |
| 72.87% | 63.25% | 8.74 | Nc1ncc(-c2cnn(C3CCN(CCOC4CCN(C(=O)COc5cccc6c5C(=O)N(C5CCC(=O)NC5=O)C6=O)CC4)CC3)c2)nc1C(=O)OC(C(=O)Nc1ccc(F)cc1)c1ccccc1 (stereo not drawn) [TDH-251, 2-((4-fluorophenyl)amino)-2-oxo-1-phenylethyl 3-amino-6-(1-(1-(2-((1-(2-((2-(2,6-dioxopiperidin-3-yl)-1,3-dioxoisoindolin-4-yl)oxy)acetyl)piperidin-4-yl)oxy)ethyl)piperidin-4-yl)-1H-pyrazol-4-yl)pyrazine-2-carboxylate] | 84.44% | 74.61% |  |  |  |
| 87.34% | 79.50% | 8.89 | Nc1ncc(-c2cnn(C3CCN(C(=O)CCC4CCN(C(=O)COc5ccc6nnn(C7CCC(=O)NC7=O)c(=O)c6c5)CC4)CC3)c2)nc1C(=O)O[C@@H](C(=O)Nc1ccc(F)cc1)c1ccccc1 (stereo partly drawn) [TDH-437, (R)-2-((4-fluorophenyl)amino)-2-oxo-1-phenylethyl 3-amino-6-(1-(1-(3-(1-(2-((3-(2,6-dioxopiperidin-3-yl)-4-oxo-3,4-dihydrobenzo[d][1,2,3]triazin-6-yl)oxy)acetyl)piperidin-4-yl)propanoyl)piperidin-4-yl)-1H-pyrazol-4-yl)pyrazine-2-carboxylate] |  |  |  | 42.82% | 23.20% |
| 59.64% | 49.16% | 9.19 | Nc1ncc(-c2cnn(C3CCN(CCC4CCN(C(=O)COc5ccc6nnn(C7CCC(=O)NC7=O)c(=O)c6c5)CC4)CC3)c2)nc1C(=O)O[C@@H](C(=O)Nc1ccc(F)cc1)c1ccccc1 (stereo partly drawn) [TDH-330, (R)-2-((4-fluorophenyl)amino)-2-oxo-1-phenylethyl 3-amino-6-(1-(1-(2-(1-(2-((3-(2,6-dioxopiperidin-3-yl)-4-oxo-3,4-dihydrobenzo[d][1,2,3]triazin-6-yl)oxy)acetyl)piperidin-4-yl)ethyl)piperidin-4-yl)-1H-pyrazol-4-yl)pyrazine-2-carboxylate] |  | 51.95% | 54.05 (1.1µM) % |  |  |
| 93.87% | 94.41% | 9.64 | COc1ccc(C(=O)N2CCC3(CC2)CC(N2CCC(CCN4CCC(n5cc(-c6cnc(N)c(C(=O)O[C@@H](C(=O)Nc7ccc(F)cc7)c7ccccc7)n6)cn5)CC4)CC2)C3)cc1N1CCC(=O)NC1=O [TDH-504, (R)-2-((4-fluorophenyl)amino)-2-oxo-1-phenylethyl 3-amino-6-(1-(1-(2-(1-(7-(3-(2,4-dioxotetrahydropyrimidin-1(2H)-yl)-4-methoxybenzoyl)-7-azaspiro[3.5]nonan-2-yl)piperidin-4-yl)ethyl)piperidin-4-yl)-1H-pyrazol-4-yl)pyrazine-2-carboxylate] |  |  |  | 94.61% | 33.71% |
